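1) Cells in 96-well plates. 2) Compound, 48 h, 5 concentrations. 3) Linear interpolation between surrounding doses. 4) Unreached endpoint = highest concentration. TGI marks complete inhibition of growth.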
Key:
Assay in all cases: NCI tumour cell line growth inhibition, 48 h
CAKI-1 renal = system: CAKI-1 renal
COLO 205 colon = system: COLO 205 colon
DU-145 prostate = system: DU-145 prostate
EKVX NSCLC = system: EKVX NSCLC
MDA-MB-435 = system: MDA-MB-435
MDA-N = system: MDA-N
MOLT-4 leukemia = system: MOLT-4 leukemia
OVCAR-4 ovarian = system: OVCAR-4 ovarian
RPMI-8226 leukemia = system: RPMI-8226 leukemia
RXF 393 renal = system: RXF 393 renal
SK-MEL-2 melanoma = system: SK-MEL-2 melanoma
SK-MEL-28 melanoma = system: SK-MEL-28 melanoma
SNB-19 CNS = system: SNB-19 CNS
SNB-75 CNS = system: SNB-75 CNS
TK-10 renal = system: TK-10 renal
UACC-62 melanoma = system: UACC-62 melanoma
A498 renal = system: A498 renal
HCC-2998 colon = system: HCC-2998 colon
NCI-H460 lung = system: NCI-H460 lung
SF-539 CNS = system: SF-539 CNS

Compound	TGI (CAKI-1 renal)	TGI (COLO 205 colon)	TGI (DU-145 prostate)	TGI (EKVX NSCLC)	TGI (MDA-MB-435)	TGI (MDA-N)	TGI (MOLT-4 leukemia)	TGI (OVCAR-4 ovarian)	TGI (RPMI-8226 leukemia)	TGI (RXF 393 renal)	TGI (SK-MEL-2 melanoma)	TGI (SK-MEL-28 melanoma)	TGI (SNB-19 CNS)	TGI (SNB-75 CNS)	TGI (TK-10 renal)	TGI (UACC-62 melanoma)	TGI (A498 renal)	TGI (HCC-2998 colon)	TGI (NCI-H460 lung)	TGI (SF-539 CNS)
CCN(CC)c1ccc2nc3ccc(N=Nc4c(O)ccc5ccccc45)cc3[n+](-c3ccccc3)c2c1	> 100 µM	> 100 µM	> 100 µM	> 100 µM	> 100 µM	> 100 µM	> 100 µM	> 100 µM	> 100 µM	> 100 µM	> 100 µM	> 100 µM	> 100 µM	> 100 µM	> 100 µM	> 100 µM	–	–	–	–
COc1cc2c(cc1OC)CC1c3cc(OC)c(OC)cc3CCN1CC2 (centres undefined)	> 100 µM	> 100 µM	> 100 µM	> 100 µM	> 100 µM	–	> 100 µM	> 100 µM	> 100 µM	> 100 µM	> 100 µM	> 100 µM	76.2 µM	> 100 µM	> 100 µM	> 100 µM	> 100 µM	> 100 µM	> 100 µM	> 100 µM
CC(C)C[C@H](NC(=O)[C@H](Cc1ccc(F)cc1)NC(=O)c1ccccn1)B(O)O	< 0.0124 µM	1.12 µM	–	0.0933 µM	< 0.01 µM	< 0.01 µM	> 100 µM	< 0.0326 µM	> 100 µM	< 0.01 µM	< 0.01 µM	< 0.01 µM	> 33.4 µM	< 0.01 µM	0.0193 µM	< 0.01 µM	–	< 0.01 µM	0.0504 µM	< 0.01 µM
CN(C)c1nncc2n[nH]nc12	> 100 µM	> 100 µM	–	> 100 µM	> 100 µM	> 100 µM	> 100 µM	> 100 µM	> 100 µM	–	> 100 µM	> 100 µM	–	> 100 µM	> 100 µM	> 100 µM	> 100 µM	> 100 µM	–	> 100 µM
Cc1ccc(OCC2OC(n3cnc4c(Cl)nc(Cl)nc43)CC2Oc2ccc(C)cc2)cc1 (centres undefined)	2.96 µM	3.73 µM	3.84 µM	14.9 µM	5.48 µM	3.84 µM	4.27 µM	4.45 µM	–	–	5.26 µM	7.56 µM	3.3 µM	5.39 µM	23.3 µM	4.1 µM	44.8 µM	30.8 µM	3.39 µM	4.04 µM
CN(C(=O)C1=CCC2(CC1)OCCO2)c1ccccc1I	> 100 µM	> 100 µM	> 100 µM	> 100 µM	> 100 µM	> 100 µM	> 100 µM	> 100 µM	> 100 µM	–	> 100 µM	> 100 µM	> 100 µM	> 100 µM	> 100 µM	> 100 µM	> 100 µM	> 100 µM	> 100 µM	–
CC(=O)OC[C@@]12Cc3ccc(C)c(O)c3[C@]1(C)[C@@H](OC(C)=O)[C@]1(O)[C@H]([C@@H](OC(=O)c3ccccc3)[C@@H](C)[C@H]1OC(C)=O)[C@H]2OC(C)=O	> 50 µM	> 50 µM	> 50 µM	> 50 µM	> 50 µM	–	> 50 µM	> 50 µM	–	> 50 µM	> 50 µM	–	> 50 µM	> 50 µM	> 50 µM	> 50 µM	> 50 µM	> 50 µM	> 50 µM	> 50 µM
OC(c1ccc2c(c1)OCO2)c1ccc2c(c1)OCO2	> 100 µM	> 100 µM	> 100 µM	> 100 µM	> 100 µM	> 100 µM	> 100 µM	> 100 µM	> 100 µM	–	> 100 µM	> 100 µM	> 100 µM	> 100 µM	> 100 µM	> 100 µM	> 100 µM	> 100 µM	> 100 µM	> 100 µM
COC(=O)C1Cc2ccc3c(c2C1=O)CCCC3 (centres undefined)	> 100 µM	> 100 µM	> 100 µM	> 100 µM	> 100 µM	> 100 µM	> 100 µM	> 100 µM	> 100 µM	–	> 100 µM	> 100 µM	> 100 µM	> 100 µM	> 100 µM	> 100 µM	> 100 µM	> 100 µM	> 100 µM	> 100 µM
CC(C)Oc1cccc(N2C(=NCCc3c[nH]c4ccccc34)Nc3ccncc3S2(=O)=O)c1	> 100 µM	4.08 µM	> 100 µM	> 100 µM	> 100 µM	–	> 100 µM	> 100 µM	> 100 µM	44.9 µM	> 100 µM	> 100 µM	> 100 µM	> 100 µM	> 100 µM	> 100 µM	> 100 µM	> 100 µM	> 100 µM	> 100 µM

Reference: PubChem BioAssay (NCI)
